According to ChEMBL document CHEMBL4842340, “Development of Cagrilintide, a Long-Acting Amylin Analogue” (J Med Chem, 2021):
Converted amounts (≈) assume the structure as drawn. *1 amine or outer side, *2 acyl side, *3 side chain or, on linkers, in order; H or OH if unused. Where a SMILES comes first, the peptide text is derived from it. Bridges are numbered along the chain shown (N, C = ends). The star is where a group is joined. C20 diacid = O=C(O)CCCCCCCCCCCCCCCCCCC(=O)*; γGlu = O=C(O)[C@H](CCC(=O)[*:2])N[*:1]

Tests used:
Homo sapiens [1] = species on record: Homo sapiens; assay: Ratio of EC50 for human calcitonin receptor expressed in BHK570 cells to EC50 for human AMY3R (CT+RAMP3) expressed in Hollex1 cells; format: cell-based
[2] = Solubility of the compound in bis-tris propane at pH 7 by UPLC analysis; format: physicochemical; settings: bis-tris propane buffer
Rattus norvegicus [3] = assay: Reduction in food intake in Sprague-Dawley rat at 3 nmol/kg, sc administered as single dose measured after 24 to 48 hrs relative to control; format: functional; design: scale not given: the % may be the effect or the level left; settings: time 24-48 hrs
[4] = Agonist activity at human calcitonin receptor expressed in BHK570 cells assessed as increase in intracellular cAMP concentration incubated for 3 hrs in absence of albumin by CRE luciferase reporter gene assay; format: cell-based; settings: BHK570, 3 h
Insulin (Homo sapiens) [5] = molecular target: Insulin (Homo sapiens) (UniProt P01308); assay: Effect on insulin (unknown origin) amyloid fibril formation assessed as peptide recovery in glycyl-glycine buffer at pH 4 measured after 45 hrs by thioflavin-T fluorescence assay relative to control; design: concentration or dose not given beside the values
Insulin (Homo sapiens) [6] = molecular target: Insulin (Homo sapiens) (UniProt P01308); assay: Effect on insulin (unknown origin) amyloid fibril formation assessed as lag time in HEPES buffer at pH 7.5 measured after 45 hrs by thioflavin-T fluorescence assay
[7] = Solubility of the compound in lactate at pH 5 by UPLC analysis; format: physicochemical; settings: lactate buffer
[8] = Agonist activity at rat calcitonin receptor expressed in BHK-13 cells assessed as increase in intracellular cAMP concentration incubated for 25 mins by CRE luciferase reporter gene assay; format: cell-based; settings: BHK-13, 25 min
Rattus norvegicus [9] = assay: Reduction in food intake in Sprague-Dawley rat at 3 nmol/kg, sc administered as single dose measured upto 24 hrs relative to control; format: functional; design: scale not given: the % may be the effect or the level left; settings: time hrs <=24
Insulin (Homo sapiens) [10] = molecular target: Insulin (Homo sapiens) (UniProt P01308); assay: Effect on insulin (unknown origin) amyloid fibril formation assessed as lag time in glycyl-glycine buffer at pH 4 measured after 45 hrs by thioflavin-T fluorescence assay
[11] = Agonist activity at rat AMY3R (CT+RAMP3) expressed in tk-ts13 cells assessed as increase in intracellular cAMP level incuabted for 25 mins by CRE luciferase reporter gene assay; format: cell-based; settings: tk-ts13, 25 min
[12] = Solubility of the compound in bis-tris propane at pH 6.5 by UPLC analysis; format: physicochemical; settings: bis-tris propane buffer
[13] = Solubility of the compound in lactate at pH 3 by UPLC analysis; format: physicochemical; settings: lactate buffer
[14] = Solubility of the compound in bis-tris propane at pH 6 by UPLC analysis; format: physicochemical; settings: bis-tris propane buffer
[15] = Solubility of the compound in bis-tris propane at pH 7.5 by UPLC analysis; format: physicochemical; settings: bis-tris propane buffer
[16] = Solubility of the compound in bis-tris propane at pH 8 by UPLC analysis; format: physicochemical; settings: bis-tris propane buffer
[17] = Solubility of the compound in lactate at pH 4 by UPLC analysis; format: physicochemical; settings: lactate buffer
Rattus norvegicus [18] = species on record: Rattus norvegicus; assay: Ratio of EC50 for rat calcitonin receptor expressed in BHK-13 cells to EC50 for rat AMY3R (CT+RAMP3) expressed in tk-ts13 cells; format: cell-based
[19] = Agonist activity at human AMY3R (CT+RAMP3) expressed in Hollex1 cells incubated for 3 hrs by luminescence assay; format: cell-based; settings: Hollex1, 3 h
Rattus norvegicus [20] = assay: Reduction in food intake in Sprague-Dawley rat at 30 nmol/kg, sc administered as single dose measured upto 24 hrs relative to control; format: functional; design: scale not given: the % may be the effect or the level left; settings: time hrs <=24
[21] = Displacement of [125I]-calcitonin from human calcitonin receptor expressed in tk-ts 13 cells measured after 120 mins by scintillation proximity assay; format: cell-based; settings: tk-ts13
[22] = Displacement of [125I]-calcitonin from rat calcitonin receptor expressed in tk-ts 13 cells measured after 120 mins by scintillation proximity assay; format: cell-based; settings: tk-ts13
[23] = Displacement of [125I]-amylin from human AMY3R (CTR+RAMP3) expressed in BHK-13 cells measured after 120 mins by scintillation proximity assay; format: cell-based
Rattus norvegicus [24] = assay: Reduction in food intake in Sprague-Dawley rat at 30 nmol/kg, sc administered as single dose measured after 24 to 48 hrs relative to control; format: functional; design: scale not given: the % may be the effect or the level left; settings: time 24-48 hrs
[25] = Displacement of [125I]-amylin from rat AMY3R (CTR+RAMP3) expressed in BHK-13 cells measured after 120 mins by scintillation proximity assay; format: cell-based
Homo sapiens [26] = species on record: Homo sapiens; assay: Ratio of IC50 for displacement of [125I]-calcitonin from human calcitonin receptor expressed in tk-ts 13 cells to IC50 for displacement of [125I]-amylin from human AMY3R (CTR+RAMP3) expressed in BHK-13 cells; format: cell-based
Rattus norvegicus [27] = species on record: Rattus norvegicus; assay: Ratio of IC50 for displacement of [125I]-calcitonin from rat calcitonin receptor expressed in tk-ts 13 cells to IC50 for displacement of [125I]-amylin from rat AMY3R (CTR+RAMP3) expressed in BHK-13 cells; format: cell-based

Insulin (Homo sapiens), sequence (P01308 whole entry): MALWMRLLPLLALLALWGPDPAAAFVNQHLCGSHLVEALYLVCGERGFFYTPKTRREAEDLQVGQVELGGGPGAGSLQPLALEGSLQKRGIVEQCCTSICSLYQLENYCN

Row | solubility [2] [µM] | EC50 [4] [nM] | Activity (Insulin (Homo sapiens) [5]) [%] | solubility [7] [µM] | EC50 [8] [nM] | TIME (Insulin (Homo sapiens) [10]) [h] | EC50 [11] [nM] | solubility [12] [µM] | solubility [13] [µM] | solubility [14] [µM] | solubility [15] [µM] | solubility [16] [µM] | solubility [17] [µM] | EC50 [19] [nM] | Structure (SMILES) | Ratio EC50 (Homo sapiens [1]) | Activity (Rattus norvegicus [3]) [%] | Activity (Rattus norvegicus [9]) [%] | Ratio EC50 (Rattus norvegicus [18]) | further results
1 | 200 (≈ 922 µg/mL) | 0.347 | 35 | 200 (≈ 922 µg/mL) | 4.97 | 16 | 0.623 | 200 (≈ 922 µg/mL) | 200 (≈ 922 µg/mL) | 200 (≈ 922 µg/mL) | 200 (≈ 922 µg/mL) | 200 (≈ 922 µg/mL) | 200 (≈ 922 µg/mL) | 0.297 | CC[C@H](C)[C@H](NC(=O)[C@@H]1CCCN1C(=O)CNC(=O)[C@H](Cc1ccccc1)NC(=O)[C@H](CC(N)=O)NC(=O)[C@H](CC(N)=O)NC(=O)[C@H](CO)NC(=O)[C@H](CO)NC(=O)[C@H](Cc1c[nH]cn1)NC(=O)[C@H](Cc1cnc[nH]1)NC(=O)[C@H](CC(C)C)NC(=O)[C@H](Cc1ccccc1)NC(=O)[C@H](CCC(=O)O)NC(=O)[C@H](C)NC(=O)[C@H](CC(C)C)NC(=O)[C@H](CCCNC(=N)N)NC(=O)[C@H](CCC(N)=O)NC(=O)[C@@H](NC(=O)[C@H](C)NC(=O)[C@@H]1CSSC[C@H](NC(=O)[C@H](CCCCN)NC(=O)CC[C@H](NC(=O)CC[C@H](NC(=O)CCCCCCCCCCCCCCCCCCC(=O)O)C(=O)O)C(=O)O)C(=O)N[C@@H](CC(N)=O)C(=O)N[C@@H]([C@@H](C)O)C(=O)N[C@@H](C)C(=O)N[C@@H]([C@@H](C)O)C(=O)N1)[C@@H](C)O)C(=O)N[C@@H](CC(C)C)C(=O)N1CCC[C@H]1C(=O)N1CCC[C@H]1C(=O)N[C@H](C(=O)N[C@@H](CC(N)=O)C(=O)N[C@H](C(=O)NCC(=O)N[C@@H](CO)C(=O)N[C@@H](Cc1cnc[nH]1)C(=O)N[C@H](C(=O)N[C@@H](Cc1ccc(O)cc1)C(N)=O)[C@@H](C)O)C(C)C)[C@@H](C)O ({C20 diacid-γGlu-γGlu}-KCNTATCATQRLAEFLHHSSNNFGPILPPTNVGSHTY-NH2; disulfide 2-7) | 1 | 21 | 46 | 8 | TIME (Insulin (Homo sapiens) [6]): 4 h
2 | 15 (≈ 66.9 µg/mL) | 0.128 | 0 | 200 (≈ 891 µg/mL) | 0.355 | 11 | 0.063 | 16 (≈ 71.3 µg/mL) | 200 (≈ 891 µg/mL) | 52 (≈ 232 µg/mL) | 58 (≈ 259 µg/mL) | 138 (≈ 615 µg/mL) | 200 (≈ 891 µg/mL) | 0.083 | CC[C@H](C)[C@H](NC(=O)[C@@H]1CCCN1C(=O)CNC(=O)[C@H](Cc1ccccc1)NC(=O)[C@H](CC(N)=O)NC(=O)[C@H](CC(N)=O)NC(=O)[C@H](CO)NC(=O)[C@H](CO)NC(=O)[C@H](CCC(=O)O)NC(=O)[C@H](Cc1cnc[nH]1)NC(=O)[C@H](CC(C)C)NC(=O)[C@H](Cc1ccccc1)NC(=O)[C@H](CCC(=O)O)NC(=O)[C@H](C)NC(=O)[C@H](CC(C)C)NC(=O)[C@H](CCCNC(=N)N)NC(=O)[C@H](CCC(N)=O)NC(=O)[C@@H](NC(=O)[C@H](C)NC(=O)[C@@H]1CSSC[C@H](NC(=O)[C@H](Cc2cnc[nH]2)NC(=O)CC[C@H](NC(=O)CCCCCCCCCCCCCCCCCCC(=O)O)C(=O)O)C(=O)N[C@@H](CC(N)=O)C(=O)N[C@@H]([C@@H](C)O)C(=O)N[C@@H](C)C(=O)N[C@@H]([C@@H](C)O)C(=O)N1)[C@@H](C)O)C(=O)N[C@@H](CC(C)C)C(=O)N1CCC[C@H]1C(=O)N1CCC[C@H]1C(=O)N[C@H](C(=O)N[C@@H](CC(N)=O)C(=O)N[C@H](C(=O)NCC(=O)N[C@@H](CO)C(=O)N[C@@H](CC(N)=O)C(=O)N[C@H](C(=O)N[C@@H](Cc1ccc(O)cc1)C(N)=O)[C@@H](C)O)C(C)C)[C@@H](C)O ({C20 diacid-γGlu}-HCNTATCATQRLAEFLHESSNNFGPILPPTNVGSNTY-NH2; disulfide 2-7) | 2 | 45 | 50 | 6 | Activity (Rattus norvegicus [20]): 93%; IC50 [21]: 1.75 nM; IC50 [22]: 0.812 nM; IC50 [23]: 0.137 nM; Activity (Rattus norvegicus [24]): 92%; IC50 [25]: 0.034 nM; Ratio IC50 (Homo sapiens [26]): 13; Ratio IC50 (Rattus norvegicus [27]): 24
